Several values for one entry are separate records, joined by “and”; a condition that tells them apart may be missing. Identical values can stand only once. Toxic doses and inconclusive results are not listed.
Tested on: BDF1 mice, B16 melanoma ip, median survival T/C
Test: NCI In Vivo Anticancer Drug Screen. Data for tumor model B16 Melanoma (intraperitoneal) in B6D2F1 (BDF1) mice
Details: endpoint: median survival time, higher = longer survival
Experimental: The antitumor activity of compounds was measured in mice bearing transplantable tumors. Survival or tumor size were measured and the results are expressed as the measurement made in the treated group (T) divided by the measurement made in the vehicle treated control group (C). The tumor model used in this assay is B16 Melanoma (intraperitoneal) in B6D2F1 (BDF1) mice

[1] = dose: 100.0 mg/kg/injection, schedule: Q01DX009 (ip), vehicle: Klucel (hydroxypropylcellulose) (HPC)
[2] = dose: 200.0 mg/kg/injection, schedule: Q01DX009 (ip), vehicle: Klucel (hydroxypropylcellulose) (HPC)
[3] = dose: 100.0 mg/kg/injection, schedule: Q04DX003 (ip), vehicle: saline with Tween-80
[4] = dose: 200.0 mg/kg/injection, schedule: Q04DX003 (ip), vehicle: saline with Tween-80
[5] = dose: 400.0 mg/kg/injection, schedule: Q04DX003 (ip), vehicle: saline with Tween-80
[6] = dose: 100.0 mg/kg/injection, schedule: Q01DX009 (ip), vehicle: saline with Tween-80
[7] = dose: 200.0 mg/kg/injection, schedule: Q01DX009 (ip), vehicle: saline with Tween-80
[8] = dose: 400.0 mg/kg/injection, schedule: Q01DX009 (ip), vehicle: saline with Tween-80
[9] = dose: 50.0 mg/kg/injection, schedule: Q01DX009 (ip), vehicle: saline with Tween-80
[10] = dose: 25.0 mg/kg/injection, schedule: Q01DX009 (ip), vehicle: saline with Tween-80
[11] = dose: 100.0 mg/kg/injection, schedule: Q01DX009 (ip), vehicle: saline
[12] = dose: 200.0 mg/kg/injection, schedule: Q01DX009 (ip), vehicle: saline
[13] = dose: 25.0 mg/kg/injection, schedule: Q01DX009 (ip), vehicle: saline
[14] = dose: 50.0 mg/kg/injection, schedule: Q01DX009 (ip), vehicle: saline
[15] = dose: 400.0 mg/kg/injection, schedule: Q01DX009 (ip), vehicle: Klucel (hydroxypropylcellulose) (HPC)
[16] = dose: 12.5 mg/kg/injection, schedule: Q01DX009 (ip), vehicle: saline with Tween-80
[17] = dose: 5.0 mg/kg/injection, schedule: Q01DX009 (ip), vehicle: saline with Tween-80
[18] = dose: 10.0 mg/kg/injection, schedule: Q01DX009 (ip), vehicle: saline with Tween-80
[19] = dose: 20.0 mg/kg/injection, schedule: Q01DX009 (ip), vehicle: saline with Tween-80

## CC(=O)Oc1ccc(Nc2c3ccccc3nc3ccccc23)cc1
dose: 1.87 mg/kg/injection, schedule: Q01DX009 (ip), vehicle: saline with Tween-80
  T/C: 110 % of control
dose: 3.75 mg/kg/injection, schedule: Q01DX009 (ip), vehicle: saline with Tween-80
  T/C: 114 % of control
dose: 7.5 mg/kg/injection, schedule: Q01DX009 (ip), vehicle: saline with Tween-80
  T/C: 121 % of control
dose: 29.3 mg/kg/injection, schedule: Q01DX009 (ip), vehicle: saline with Tween-80
  T/C: 197 % of control
dose: 30.0 mg/kg/injection, schedule: Q01DX009 (ip), vehicle: saline with Tween-80
  T/C: 156 % of control and 158 % of control
dose: 40.0 mg/kg/injection, schedule: Q01DX009 (ip), vehicle: saline with Tween-80
  T/C: 150 % of control

## C(=N\Nc1nn[nH]n1)/c1ccncc1
[1]
  T/C: 103 % of control
[2]
  T/C: 104 % of control

## COc1cc(NCc2ccc3nc(N)nc(N)c3c2C)cc(OC)c1OC
dose: 0.62 mg/kg/injection, schedule: Q01DX009 (ip), vehicle: sodium bicarbonate
  T/C: 104 % of control
dose: 1.25 mg/kg/injection, schedule: Q01DX009 (ip), vehicle: sodium bicarbonate
  T/C: 101 % of control and 117 % of control
dose: 2.5 mg/kg/injection, schedule: Q01DX009 (ip), vehicle: sodium bicarbonate
  T/C: 107 % of control and 124 % of control
dose: 5.0 mg/kg/injection, schedule: Q01DX009 (ip), vehicle: sodium bicarbonate
  T/C: 124 % of control
dose: 10.0 mg/kg/injection, schedule: Q01DX009 (ip), vehicle: sodium bicarbonate
  T/C: 155 % of control
dose: 20.0 mg/kg/injection, schedule: Q01DX009 (ip), vehicle: sodium bicarbonate
  T/C: 150 % of control and 164 % of control

## CCOC(=O)C(C(=O)COC)C(=O)OCC
dose: 25.0 mg/kg/injection, schedule: Q01DX009 (ip), vehicle: water
  T/C: 102 % of control
dose: 50.0 mg/kg/injection, schedule: Q01DX009 (ip), vehicle: water
  T/C: 98 % of control
dose: 100.0 mg/kg/injection, schedule: Q01DX009 (ip), vehicle: water
  T/C: 93 % of control

## O=C(O)/C=C/c1ccc(/C=C/C(=O)O)cc1
[3]
  T/C: 111 % of control
[4]
  T/C: 102 % of control
[5]
  T/C: 100 % of control

## CC(C)[NH-].CC(C)[NH-].[Cl][Pt+2][Cl]
dose: 12.5 mg/kg/injection, schedule: Q01DX009 (ip), vehicle: dextrose
  T/C: 155 % of control

## CCOC(=O)C(=CN1CCCC1)C(=O)OCC
[6]
  T/C: 102 % of control
[3]
  T/C: 120 % of control
[7]
  T/C: 105 % of control
[4]
  T/C: 117 % of control
[8]
  T/C: 91 % of control
[5]
  T/C: 111 % of control

## NC(CCCCNC(=O)c1ccccc1)C(=O)O (centres undefined)
[9]
  T/C: 100 % of control
[6]
  T/C: 100 % of control
[7]
  T/C: 92 % of control
[8]
  T/C: 95 % of control

## COc1ccccc1N=Nc1c(O)ccc2ccccc12
[10]
  T/C: 101 % of control
[9]
  T/C: 112 % of control
[6]
  T/C: 108 % of control

## Oc1ccc(I)c2cccnc12
[9]
  T/C: 97 % of control
[6]
  T/C: 100 % of control
[7]
  T/C: 97 % of control

## NC(Cc1cnc[nH]1)C(=O)O (centres undefined) (tested in a mixture with another compound)
[11]
  T/C: 106 % of control
dose: 100.0 mg/kg/injection, schedule: Q04DX003 (ip), vehicle: saline
  T/C: 104 % of control
[12]
  T/C: 100 % of control
dose: 200.0 mg/kg/injection, schedule: Q04DX003 (ip), vehicle: saline
  T/C: 90 % of control
dose: 400.0 mg/kg/injection, schedule: Q01DX009 (ip), vehicle: saline
  T/C: 100 % of control
dose: 400.0 mg/kg/injection, schedule: Q04DX003 (ip), vehicle: saline
  T/C: 102 % of control

## CCCC1(CCC)CN(C)C1=O
dose: 12.5 mg/kg/injection, schedule: Q01DX009 (ip), vehicle: saline
  T/C: 91 % of control
[13]
  T/C: 89 % of control
[14]
  T/C: 100 % of control
[11]
  T/C: 106 % of control
[12]
  T/C: 93 % of control

## NC(CC(=O)CCl)C(=O)O (centres undefined)
dose: 3.13 mg/kg/injection, schedule: Q01DX009 (ip), vehicle: saline
  T/C: 109 % of control
dose: 6.25 mg/kg/injection, schedule: Q01DX009 (ip), vehicle: saline
  T/C: 118 % of control

## CN(C)C=NC1CCC(C(C)(C)C)CC1 (centres undefined)
dose: 6.25 mg/kg/injection, schedule: Q01DX009 (ip), vehicle: Klucel (hydroxypropylcellulose) (HPC)
  T/C: 89 % of control
dose: 12.5 mg/kg/injection, schedule: Q01DX009 (ip), vehicle: Klucel (hydroxypropylcellulose) (HPC)
  T/C: 93 % of control
dose: 25.0 mg/kg/injection, schedule: Q01DX009 (ip), vehicle: Klucel (hydroxypropylcellulose) (HPC)
  T/C: 86 % of control

## CCOC(=O)/C=C/c1ccc2c(c1)OCO2
dose: 66.0 mg/kg/injection, schedule: Q04DX003 (ip), vehicle: saline with Tween-80
  T/C: 97 % of control
[6]
  T/C: 104 % of control
[3]
  T/C: 97 % of control
dose: 150.0 mg/kg/injection, schedule: Q04DX003 (ip), vehicle: saline with Tween-80
  T/C: 100 % of control
[7]
  T/C: 106 % of control
[8]
  T/C: 102 % of control

## CCC(C)(C[NH-])C[NH-].[Cl][Pt+2][Cl]
dose: 0.5 mg/kg/injection, schedule: Q01DX009 (ip), vehicle: carboxymethylcellulose (CMC)
  T/C: 159 % of control
dose: 1.0 mg/kg/injection, schedule: Q01DX009 (ip), vehicle: carboxymethylcellulose (CMC)
  T/C: 180 % of control

## c1ccc(CNC(Cc2ccccc2)c2ccc(OCc3ccccc3)cc2)cc1 (centres undefined)
[1]
  T/C: 106 % of control
[2]
  T/C: 96 % of control
[15]
  T/C: 93 % of control

## COC(=O)[C@@]12OC[C@]34[C@H]([C@@H](O)[C@@H]1O)[C@@]1(C)C=C(OC5OC(CO)C(O)C(O)C5O)C(=O)C(C)[C@@H]1C[C@H]3OC(=O)[C@H](OC(=O)C=C(C)C)[C@@H]24 (some centres undefined)
dose: 0.25 mg/kg/injection, schedule: Q01DX009 (ip), vehicle: saline + alcohol
  T/C: 108 % of control
dose: 0.5 mg/kg/injection, schedule: Q01DX009 (ip), vehicle: saline + alcohol
  T/C: 108 % of control
dose: 1.0 mg/kg/injection, schedule: Q01DX009 (ip), vehicle: saline + alcohol
  T/C: 108 % of control
dose: 2.0 mg/kg/injection, schedule: Q01DX009 (ip), vehicle: saline + alcohol
  T/C: 105 % of control
dose: 4.0 mg/kg/injection, schedule: Q01DX009 (ip), vehicle: saline + alcohol
  T/C: 113 % of control
dose: 8.0 mg/kg/injection, schedule: Q01DX009 (ip), vehicle: saline + alcohol
  T/C: 103 % of control

## Cn1ccc(=Nc2ccc(NC(=O)c3ccc(N=c4ccn(C)c5ccc([N+](=O)[O-])cc45)cc3[N+](=O)[O-])cc2)cc1
[16]
  T/C: 96 % of control
[10]
  T/C: 97 % of control
[9]
  T/C: 97 % of control
[6]
  T/C: 105 % of control
[7]
  T/C: 97 % of control
[8]
  T/C: 91 % of control

## Clc1cc(Cl)c(C[N+]23CN4CN(CN(C4)C2)C3)cc1Cl
[13]
  T/C: 117 % of control
[14]
  T/C: 108 % of control
[11]
  T/C: 111 % of control
[12]
  T/C: 122 % of control

## CCOc1ccc(NC(=O)C=O)cc1
[1]
  T/C: 100 % of control
[2]
  T/C: 90 % of control
[15]
  T/C: 90 % of control

## CC(C)=CCOc1ccc2ccc(=O)oc2c1
[17]
  T/C: 108 % of control
[18]
  T/C: 105 % of control
[19]
  T/C: 99 % of control

## CCOC(=O)C(Cc1c[nH]c2cc(N)ccc12)(NC(C)=O)C(=O)OCC
[1]
  T/C: 89 % of control
[2]
  T/C: 87 % of control

## CCCCCCC#CC(=O)OC
[16]
  T/C: 110 % of control
[10]
  T/C: 93 % of control
[9]
  T/C: 97 % of control and 100 % of control

## COc1ccc(NC(=O)Oc2ccc(-c3ccccc3)cc2Br)cc1
[1]
  T/C: 93 % of control
dose: 100.0 mg/kg/injection, schedule: Q04DX003 (ip), vehicle: Klucel (hydroxypropylcellulose) (HPC)
  T/C: 103 % of control
[2]
  T/C: 93 % of control
dose: 200.0 mg/kg/injection, schedule: Q04DX003 (ip), vehicle: Klucel (hydroxypropylcellulose) (HPC)
  T/C: 112 % of control
[15]
  T/C: 96 % of control
dose: 400.0 mg/kg/injection, schedule: Q04DX003 (ip), vehicle: Klucel (hydroxypropylcellulose) (HPC)
  T/C: 109 % of control

## CC(=O)SCC(C)CCl (centres undefined)
[9]
  T/C: 100 % of control
[6]
  T/C: 100 % of control

## O=C(CBr)c1ccc(I)cc1
dose: 1.25 mg/kg/injection, schedule: Q01DX009 (ip), vehicle: saline with Tween-80
  T/C: 90 % of control
dose: 2.5 mg/kg/injection, schedule: Q01DX009 (ip), vehicle: saline with Tween-80
  T/C: 102 % of control
[17]
  T/C: 95 % of control
[18]
  T/C: 95 % of control
[19]
  T/C: 88 % of control
